# Patent US20250255808A1, “NANOGEL PLATFORM TECHNOLOGY FOR LONG-TERM BIOLOGICS THERAPY” (UNIVERSITY OF MARYLAND, BALTIMORE, priority 2022, published 2025)
# Assays:
# [1] = Structural integrity of released Avastin (far-UV and fluorescence emission scans); type: physicochemical; conditions: after release from the nanogels, versus native and denatured controls
# Description: Nanogels containing 0, 2 or 5 mol % acrylic acid (AA) loaded with 12.5 or 37.5 wt % Avastin were dispersed in 1 mL PBS (pH 7.4) inside a release device (Float-A-Lyzer® G2, Spectrum Laboratories Inc.) with MWCO 300 kDa at 20 mg/mL. The release device was immersed in 20 mL PBS (pH 7.4) in a 50 mL conical centrifuge tube, and the release was carried out in an incubator shaker at 70 rpm and 37° C. for 100 days. At selected times, the release device was transferred to a new PBS (pH 7.4) release media maintained at 37° C. The amount of Avastin released at each time point was measured using a BCA total protein assay kit (n=4). The fluorescence spectra of released Avastin at late time points were compared to native Avastin® to evaluate the structural integrity of the therapeutic antibody during release.
# [2] = test system: VEGF expression of hfRPE cells; assay: VEGF ELISA on hfRPE cells with and without UV treatment; type: cell-based, human; conditions: Avastin 0.25 mg/mL, nanogels 2 mg/mL, 24 hours
# Description: To test the ability of Avastin®-loaded nanogels to affect VEGF expression, HfRPE cells were seeded in 96-well plates at a density of 100,000 cells/cm^2. After one day incubation, cell media for all groups was changed to PBS (pH 7.4). Half of all cells were exposed to UV light (1 J/cm) for one hour, and the other half were placed back into the cell incubator. After the 1-hour exposure, PBS (pH 7.4) for all wells were replaced with serum free media (DMEM+pen/strep), then Avastin® at concentration 0.25 mg/mL, and nanogels containing 2 mol % AA with and without 12.5 wt % Avastin® were added into the wells at a concentration of 2 mg/mL. Cells with and without UV treatment were used as controls.
# After 24 hours, a VEGF ELISA assay was conducted on all experimental groups.
substance,measurement,setting,value
Bevacizumab [Avastin],secondary and tertiary protein structures,[1],intact
same,VEGF expression of hfRPE,[2]; UV-treated cells,reduces the VEGF expression to the level of the cells without UV treatment
same,VEGF expression of hfRPE,[2]; cells without UV treatment,do not change VEGF expression
